“Also recorded” adds a separate entry of the source.
Assays:
[1] = target: T1, AR (Homo sapiens, UniProt P10275); assay: probasin (PB)-luciferase reporter assay of AR transcriptional activity; assay type: cell-based
T1 sequence (P10275 1-920 T878A): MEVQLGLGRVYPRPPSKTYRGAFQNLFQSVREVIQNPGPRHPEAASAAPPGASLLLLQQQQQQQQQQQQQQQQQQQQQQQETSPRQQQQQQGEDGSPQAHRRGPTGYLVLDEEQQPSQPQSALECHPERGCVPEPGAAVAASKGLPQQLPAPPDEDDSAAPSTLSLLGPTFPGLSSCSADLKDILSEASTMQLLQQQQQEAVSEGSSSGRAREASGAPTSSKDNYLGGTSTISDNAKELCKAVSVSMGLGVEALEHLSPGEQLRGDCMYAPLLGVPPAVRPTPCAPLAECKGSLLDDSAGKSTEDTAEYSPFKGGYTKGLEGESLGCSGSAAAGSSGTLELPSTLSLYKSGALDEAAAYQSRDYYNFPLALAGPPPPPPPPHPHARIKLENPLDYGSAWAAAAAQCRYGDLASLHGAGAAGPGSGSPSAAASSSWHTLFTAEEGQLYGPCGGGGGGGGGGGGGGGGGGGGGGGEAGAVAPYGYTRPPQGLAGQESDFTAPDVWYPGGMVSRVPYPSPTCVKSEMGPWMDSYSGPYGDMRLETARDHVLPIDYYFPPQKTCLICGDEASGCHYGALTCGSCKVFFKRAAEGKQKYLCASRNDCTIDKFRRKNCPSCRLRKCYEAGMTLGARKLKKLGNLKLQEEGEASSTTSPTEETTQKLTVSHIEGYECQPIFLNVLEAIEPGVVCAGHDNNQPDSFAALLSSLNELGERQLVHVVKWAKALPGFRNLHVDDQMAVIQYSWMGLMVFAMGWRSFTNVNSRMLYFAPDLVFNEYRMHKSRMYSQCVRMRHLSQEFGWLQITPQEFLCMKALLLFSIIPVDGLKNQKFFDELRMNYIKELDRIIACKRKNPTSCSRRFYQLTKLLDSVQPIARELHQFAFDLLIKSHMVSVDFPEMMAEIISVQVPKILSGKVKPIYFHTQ

[2] = target: T1, AR; assay: ARR3-luciferase reporter assay of AR transcriptional activity; assay type: cell-based
[3] = target: T1, AR; assay: PSA-luciferase reporter assay of AR transcriptional activity; assay type: cell-based; conditions: for PSA-Luc activity (%) mean ± SD: PSA-luciferase reporter
[4] = tested on: LNCaP CRPC xenograft; assay: LNCaP CRPC xenograft model, antitumor activity; assay type: in vivo, mice; conditions: for CRPC tumor growth / antitumor activity (in words): compared to DMSO control or to other comparative compounds, FIGS. 6, 7
[5] = Body weight of animals in LNCaP CRPC xenograft model; assay type: in vivo, mice; conditions: treated animals; FIG. 9
[6] = tested on: VCaP xenografts; assay: Growth inhibition of VCaP xenografts in castrated mice; assay type: in vivo; conditions: castrated NOD-SCID mice, 50 mg/kg i.v. every other day, seven doses; compared to (Ac); FIGS. 3, 4
Description: Growth inhibition of VCaP xenografts in castrated mice was determined as follow. Male NOD-SCID mice bearing subcutaneous VCaP tumors were castrated when tumor volume was ˜100 mm^3. […] The experiment ended two days after the last dose. Change in tumor volume was determined as the change at day 14 compared to the day of 1st injection. DMSO was used as the vehicle control.

[7] = tested on: LNCaP cells; assay: Inhibition of androgen-dependent proliferation, AlamarBlue Proliferation Assay; assay type: cell-based, human; conditions: 0.1 nM R1881, 3 days; compared to comparative compound (Ac); FIGS. 1A and 1B
Description: LNCaP human prostate cancer cells were maintained in phenol red-free RPMI 1640 medium with 0.5% (v/v) fetal bovine serum, while PC3 human prostate cancer cells were cultured in phenol red DMEM medium with 0.5% (v/v) fetal bovine serum at 37° C. […] LNCaP cells were incubated for 72 hours with R1881, while the duration of the experiment was 48 hours for PC3 cells. AlamarBlue reagent was added to the cells prior to incubation and measuring fluorescence at 570 nm.

[8] = target: T2, androgen receptor N-terminal domain (Homo sapiens, UniProt P10275); assay: Inhibition of androgen receptor N-terminal domain transactivation (AR (1-558)-Gal4 DBD, luciferase); assay type: cell-based; conditions: LNCaP cells, compound 1 20 μm vs (Ac) 25 μm, 50 ng/ml IL-6; FIG. 2
T2 construct: AR (1-558)-Gal4 DBD; expressed in transfected cells; host or cells: LNCaP
T2 sequence (P10275 1-558): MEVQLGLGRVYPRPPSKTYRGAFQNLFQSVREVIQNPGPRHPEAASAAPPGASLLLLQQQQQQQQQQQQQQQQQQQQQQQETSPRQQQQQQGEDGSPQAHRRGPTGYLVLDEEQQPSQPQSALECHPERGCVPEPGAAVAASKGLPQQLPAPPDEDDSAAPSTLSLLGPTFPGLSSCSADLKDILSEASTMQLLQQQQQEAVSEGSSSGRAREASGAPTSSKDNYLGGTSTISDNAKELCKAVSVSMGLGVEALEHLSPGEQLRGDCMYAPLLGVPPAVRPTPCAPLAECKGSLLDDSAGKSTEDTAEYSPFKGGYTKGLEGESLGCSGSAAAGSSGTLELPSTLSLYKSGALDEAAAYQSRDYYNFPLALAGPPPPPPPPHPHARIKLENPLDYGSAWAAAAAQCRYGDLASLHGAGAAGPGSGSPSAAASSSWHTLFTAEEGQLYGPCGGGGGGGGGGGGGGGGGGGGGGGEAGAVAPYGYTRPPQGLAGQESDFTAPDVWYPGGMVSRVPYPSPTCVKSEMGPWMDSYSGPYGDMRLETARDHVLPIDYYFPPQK
Description: Inhibition of androgen receptor N-terminal domain transactivation was determined as follows.

| Structure (SMILES) | PB-Luc activity (%) mean ± SD [1] [%] | ARR3-Luc activity (%) mean ± SD [2] [%] | PSA-Luc activity (%) mean ± SD [3] [%] | change in tumor volume at day 14 (in words) [6] | other results |
| --- | --- | --- | --- | --- | --- |
| CC(C)(c1ccc(OCC(O)CO)cc1)c1ccc(OCC(O)CCl)cc1 (stereo not shown) [(A)] | 63.96 ± 13.70 | 63.96 ± 14.57 | 36.91 ± 16.46 |  |  |
| CC(C)(c1ccc(OCC(O)CF)cc1)c1ccc(OCC(O)CCl)cc1 (stereo not shown) [Compound 1, 1-chloro-3-(4-(2-(4-(3-fluoro-2-hydroxypropoxy)phenyl)propan-2-yl)phenoxy)propan-2-ol] |  |  |  | increased loss in tumor volume | inhibition of androgen-dependent proliferation of LNCaP cells (in words) [7]: inhibits androgen-dependent proliferation of LNCaP cells at lower concentrations; inhibition of androgen receptor N-terminal domain transactivation (in words) [8]: more potent inhibition activity |
| CC(C)(c1ccc(OC[C@H](O)CF)cc1)c1ccc(OC[C@H](O)CCl)cc1 [Compound 1c, (S)-1-chloro-3-(4-(2-(4-((S)-3-fluoro-2-hydroxypropoxy)phenyl)propan-2-yl)phenoxy)propan-2-ol] |  |  |  | increased loss in tumor volume |  |
| CC(C)(c1ccc(OC[C@@H](O)CF)cc1)c1ccc(OC[C@@H](O)CCl)cc1 [Compound 1d, (R)-1-chloro-3-(4-(2-(4-((R)-3-fluoro-2-hydroxypropoxy)phenyl)propan-2-yl)phenoxy)propan-2-ol] |  |  |  | increased loss in tumor volume |  |

Second part, led by results:

| PB-Luc activity (%) mean ± SD [1] [%] | ARR3-Luc activity (%) mean ± SD [2] [%] | PSA-Luc activity (%) mean ± SD [3] [%] | Structure (SMILES) | change in tumor volume at day 14 (in words) [6] | other results |
| --- | --- | --- | --- | --- | --- |
| 66.44 ± 12.47 | 66.44 ± 31.59 | 45.16 ± 29.13 | CC(C)(c1ccc(OC[C@H](O)CO)cc1)c1ccc(OC[C@@H](O)CCl)cc1 [(Aa)] |  |  |
| 43.70 ± 9.98 | 43.68 ± 15.16 | 24.49 ± 13.20 | CC(C)(c1ccc(OC[C@H](O)CCl)cc1)c1ccc(OC[C@@H](O)CO)cc1 [(Ab)] |  | animals in which tumor regression was attained ([4]; FIG. 8): 60%; CRPC tumor growth / antitumor activity (in words) [4]: better antitumor activity; loss of body weight (in words) [5]: some losses |
| 41.58 ± 6.63 | 41.58 ± 14.82 | 24.33 ± 13.63 | CC(C)(c1ccc(OC[C@H](O)CO)cc1)c1ccc(OC[C@H](O)CCl)cc1 [(Ac)] |  | inhibition of transcriptional activity of AR (in words) ([3]; PSA-, probasin (PB)- and ARR3-luciferase reporters, Table 3): best activity of all the comparative compounds; extent of tumor regression (in words) ([4]; (Ac) versus (Ab), FIG. 8): greater regression; animals in which tumor regression was attained ([4]; FIG. 8): 60%; CRPC tumor growth / antitumor activity (in words) [4]: better antitumor activity; also recorded: most potent and least toxic of the comparative compounds; loss of body weight (in words) [5]: No loss of body weight |
| 54.72 ± 7.83 | 54.73 ± 12.99 | 33.55 ± 11.31 | CC(C)(c1ccc(OC[C@@H](O)CO)cc1)c1ccc(OC[C@@H](O)CCl)cc1 [(Ad)] |  |  |

— patent US20130045204A1, “FLUORINATED BISPHENOL ETHER COMPOUNDS AND METHODS FOR THEIR USE” (The University of British Columbia, priority 2011, published 2013)
